Values of other authors in patent US10093983B2 (priority 2011, dated 2018).

Biological target: T1, D351Y or D351E mutant ESR1 (Homo sapiens, UniProt P03372, D351Y)
T1 sequence (P03372 1-595 D351Y): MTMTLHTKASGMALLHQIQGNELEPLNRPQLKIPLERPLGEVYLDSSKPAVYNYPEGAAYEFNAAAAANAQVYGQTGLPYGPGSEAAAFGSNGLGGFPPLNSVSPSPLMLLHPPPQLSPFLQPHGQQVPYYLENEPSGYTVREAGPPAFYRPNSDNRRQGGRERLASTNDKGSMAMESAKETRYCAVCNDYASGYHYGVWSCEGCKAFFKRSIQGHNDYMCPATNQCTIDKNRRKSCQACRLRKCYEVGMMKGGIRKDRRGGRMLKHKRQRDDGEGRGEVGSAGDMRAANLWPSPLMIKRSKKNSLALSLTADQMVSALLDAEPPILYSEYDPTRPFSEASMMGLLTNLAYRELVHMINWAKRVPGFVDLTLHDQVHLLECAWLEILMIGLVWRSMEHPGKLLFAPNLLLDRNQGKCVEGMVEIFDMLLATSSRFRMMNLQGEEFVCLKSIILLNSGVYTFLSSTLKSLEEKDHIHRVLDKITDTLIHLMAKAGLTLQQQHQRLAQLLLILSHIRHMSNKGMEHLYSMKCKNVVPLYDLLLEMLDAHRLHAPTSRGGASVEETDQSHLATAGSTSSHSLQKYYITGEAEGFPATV

C[C@]12CC[C@@H]3c4ccc(O)cc4C[C@@H](CCCCCCCCC[S+]([O-])CCCC(F)(F)C(F)(F)F)[C@H]3[C@@H]1CC[C@@H]2O (stereo partly shown) [fulvestrant]
effects of the antiestrogen upon mutating D351 to tyrosine: unaffected
